Several values for one entry are separate records, joined by “and”; a condition that tells them apart may be missing. Equal entries are not always repeated. Inconclusive results and toxic doses are left out.
System: P388 leukemia ip, CD2F1 mice, survival T/C
Assay: NCI In Vivo Anticancer Drug Screen. Data for tumor model P388 Leukemia (intraperitoneal) in CD2F1 (CDF1) mice
Conditions: endpoint: median survival time, higher = longer survival
How it was run: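 Mice carrying the transplanted tumor received test compound or vehicle. Survival was recorded in each group, and the value is the treated-group measurement divided by that of the vehicle-treated control group.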

[1] = dose: 60.0 mg/kg/injection, schedule: Q01DX005 (ip), vehicle: saline with Tween-80
[2] = dose: 120.0 mg/kg/injection, schedule: Q01DX005 (ip), vehicle: saline with Tween-80

N#Cc1ncc(-c2ccccc2)nc1Cl
T/C (dose: 6.25 mg/kg/injection, schedule: Q01DX009 (ip), vehicle: saline with Tween-80): 100 % of control
T/C (dose: 12.5 mg/kg/injection, schedule: Q01DX009 (ip), vehicle: saline with Tween-80): 104 % of control
T/C (dose: 25.0 mg/kg/injection, schedule: Q01DX009 (ip), vehicle: saline with Tween-80): 100 % of control
T/C (dose: 50.0 mg/kg/injection, schedule: Q01DX009 (ip), vehicle: saline with Tween-80): 110 % of control
T/C (dose: 50.0 mg/kg/injection, schedule: Q04DX003 (ip), vehicle: saline with Tween-80): 100 % of control
T/C (dose: 100.0 mg/kg/injection, schedule: Q01DX009 (ip), vehicle: saline with Tween-80): 120 % of control
T/C (dose: 100.0 mg/kg/injection, schedule: Q04DX003 (ip), vehicle: saline with Tween-80): 105 % of control
T/C (dose: 200.0 mg/kg/injection, schedule: Q04DX003 (ip), vehicle: saline with Tween-80): 100 % of control

Cc1ccccc1N=Nc1ccc(N=Nc2ccc(N)nc2N)c(C)c1
T/C (dose: 50.0 mg/kg/injection, schedule: Q01DX005 (ip), vehicle: saline with Tween-80): 104 % of control
T/C (dose: 100.0 mg/kg/injection, schedule: Q01DX005 (ip), vehicle: saline with Tween-80): 110 % of control
T/C (dose: 200.0 mg/kg/injection, schedule: Q01DX005 (ip), vehicle: saline with Tween-80): 99 % of control

Cc1[nH]c2cc(Br)c(Br)cc2c1/C=N/NC(N)=S
T/C (dose: 50.0 mg/kg/injection, schedule: Q01DX001 (ip), vehicle: Klucel (hydroxypropylcellulose) (HPC)): 100 % of control
T/C (dose: 100.0 mg/kg/injection, schedule: Q01DX001 (ip), vehicle: Klucel (hydroxypropylcellulose) (HPC)): 96 % of control
T/C (dose: 200.0 mg/kg/injection, schedule: Q01DX001 (ip), vehicle: Klucel (hydroxypropylcellulose) (HPC)): 92 % of control

O=C1c2ccccc2C(=Nc2ccccc2)c2c1c(O)n(-c1ccccc1)c2O
T/C (dose: 50.0 mg/kg/injection, schedule: Q01DX005 (ip), vehicle: Klucel (hydroxypropylcellulose) (HPC)): 97 % of control
T/C (dose: 100.0 mg/kg/injection, schedule: Q01DX005 (ip), vehicle: Klucel (hydroxypropylcellulose) (HPC)): 91 % of control
T/C (dose: 200.0 mg/kg/injection, schedule: Q01DX005 (ip), vehicle: Klucel (hydroxypropylcellulose) (HPC)): 96 % of control

COc1cccc2c1C(=N)c1c(O)c3c(c(O)c1C2=O)C[C@@](O)(C(C)=O)C[C@@H]3OC1CC(N)C(O)C(C)O1 (stereo partly drawn)
T/C (dose: 0.5 mg/kg/injection, schedule: Q01DX009 (ip), vehicle: water): 153 % of control
T/C (dose: 0.75 mg/kg/injection, schedule: Q04DX003 (ip), vehicle: water): 112 % of control
T/C (dose: 1.0 mg/kg/injection, schedule: Q01DX009 (ip), vehicle: saline): 158 % of control
T/C (dose: 1.0 mg/kg/injection, schedule: Q01DX009 (ip), vehicle: water): 153 % of control and 175 % of control
T/C (dose: 1.5 mg/kg/injection, schedule: Q04DX003 (ip), vehicle: water): 118 % of control
T/C (dose: 2.0 mg/kg/injection, schedule: Q01DX009 (ip), vehicle: saline): 153 % of control
T/C (dose: 2.0 mg/kg/injection, schedule: Q01DX009 (ip), vehicle: water): 155 % of control and 186 % of control
T/C (dose: 3.0 mg/kg/injection, schedule: Q04DX003 (ip), vehicle: water): 124 % of control
T/C (dose: 3.24 mg/kg/injection, schedule: Q04DX003 (ip), vehicle: water): 150 % of control
T/C (dose: 4.0 mg/kg/injection, schedule: Q01DX009 (ip), vehicle: water): 150 % of control and 157 % of control
T/C (dose: 5.4 mg/kg/injection, schedule: Q04DX003 (ip), vehicle: water): 161 % of control
T/C (dose: 6.0 mg/kg/injection, schedule: Q04DX003 (ip), vehicle: water): 123 % of control and 124 % of control
T/C (dose: 8.0 mg/kg/injection, schedule: Q01DX009 (ip), vehicle: saline): 91 % of control
T/C (dose: 8.0 mg/kg/injection, schedule: Q01DX009 (ip), vehicle: water): 88 % of control and 94 % of control
T/C (dose: 9.0 mg/kg/injection, schedule: Q04DX003 (ip), vehicle: water): 157 % of control
T/C (dose: 12.0 mg/kg/injection, schedule: Q04DX003 (ip), vehicle: water): 102 % of control
T/C (dose: 15.0 mg/kg/injection, schedule: Q04DX003 (ip), vehicle: water): 98 % of control
T/C (dose: 24.0 mg/kg/injection, schedule: Q04DX003 (ip), vehicle: water): 123 % of control
T/C (dose: 48.0 mg/kg/injection, schedule: Q04DX003 (ip), vehicle: water): 116 % of control
T/C (dose: 96.0 mg/kg/injection, schedule: Q04DX003 (ip), vehicle: water): 98 % of control

COc1ccc(NS(=O)(=O)c2ccc(NCc3c4ccccc4nc4cc(Cl)ccc34)cc2)nn1
T/C [1]: 98 % of control
T/C [2]: 94 % of control
T/C (dose: 240.0 mg/kg/injection, schedule: Q01DX005 (ip), vehicle: saline with Tween-80): 94 % of control

C=C(C)C1CCC2=CC(CC3(C)OC3C3=CC(C(=O)OC)=C(C1)O3)OC2=O (stereo not drawn)
T/C (dose: 12.5 mg/kg/injection, schedule: Q01DX009 (ip), vehicle: Klucel (hydroxypropylcellulose) (HPC)): 99 % of control
T/C (dose: 25.0 mg/kg/injection, schedule: Q01DX009 (ip), vehicle: Klucel (hydroxypropylcellulose) (HPC)): 104 % of control
T/C (dose: 50.0 mg/kg/injection, schedule: Q01DX009 (ip), vehicle: Klucel (hydroxypropylcellulose) (HPC)): 100 % of control

COc1ccc(/C=C/C(CCN(C)C)=N/NC(=S)Nc2ccc(Br)cc2)cc1
T/C (dose: 100.0 mg/kg/injection, schedule: Q01DX001 (ip), vehicle: saline with Tween-80): 101 % of control
T/C (dose: 200.0 mg/kg/injection, schedule: Q01DX001 (ip), vehicle: saline with Tween-80): 96 % of control
T/C (dose: 400.0 mg/kg/injection, schedule: Q01DX001 (ip), vehicle: saline with Tween-80): 105 % of control

Cc1ccc2occ(-c3nnc(NC(=O)c4ccccc4)s3)c(=O)c2c1
T/C [1]: 93 % of control
T/C [2]: 86 % of control

From PubChem BioAssay AID330 (DTP/NCI, 2004)
